Data as given in patent US8507518B2, “Method of treating mantle cell lymphoma” (Mayo Foundation for Medical Education and Research, priority 2003, dated 2013).

Columns and labels:
[1] = Stability of CCI-779 in parenteral cosolvent formulation with antioxidant/chelating agent; assay type: physicochemical; details: citric acid at a concentration of less than 0.01% w/v
Excerpt: In this embodiment, the stability of a CCI-779 in parenterally acceptable alcoholic cosolvents is enhanced by addition of an antioxidant to the formulation. Acceptable antioxidants include, but are not limited to, citric acid, d,l-α-tocopherol, BHA, BHT, monothioglycerol, ascorbic acid, propyl gallate, and mixtures thereof. Generally, the parenteral formulations useful in this embodiment of the invention will contain an antioxidant component(s) in a concentration ranging from 0.001% to 1% w/v, or 0.01% to 0.5% w/v, of the cosolvent concentrate, although lower or higher concentrations may be desired. Of the antioxidants, d,l-α-tocopherol is particularly desirable and is used at a concentration of 0.01 to 0.1% w/v with a preferred concentration of 0.075% w/v of the cosolvent concentrate.
Examples of such chelating agents include, e.g., citric acid, acetic acid, and ascorbic acid (which may function as both a classic antioxidant and a chelating agent in the present formulations). Other chelating agents include such materials as are capable of binding metal ions in solution, such as ethylene diamine tetra acetic acid (EDTA), its salts, or amino acids such as glycine are capable of enhancing the stability of a CCI-779. […] Optimal concentrations for the selected antioxidant(s) can be readily determined by one of skill in the art, based upon the information provided herein.

mantle cell lymphoma [2] = assay: Phase II study of low dose single-agent CCI-779, 25 mg/week, in relapsed mantle cell lymphoma; assay type: in vivo, human
Protocol: Eleven patients (4 refractory, […], ranging from 55 to 85 years old) with MCL were enrolled in a Phase II study of CCI-779 and were treated as described in Example 1 above, with the exception that they received a 10-fold lower dose than in Example 1, i.e., 25 mg/week. Eight patients (73%) were in stage 4, two (18%) in stage 3, and 4 (36%) had ≧2 extranodal sites. Patients had received a median of 3 prior therapies (range, 1-7) and 3 were refractory to their last treatment.

[3] = Safety and tolerability in the phase II trial of CCI-779 250 mg IV weekly; assay type: in vivo, human
Protocol: (§1) Patients were treated with a flat dose of 250 mg of CCI-779 diluted in 250 mL of normal saline and delivered IV over 30 minutes. Patients were pretreated with diphenhydramine 25-50 mg IV. Treatment was weekly and a cycle was considered 4 weeks. A complete blood count was performed each week and a full dose delivered if the platelet count was ≧50,000 and the ANC≧1000 and there was no grade 3 non-hematologic toxicity (using the NCI Common Toxicity Criteria version 2). […] Patients were not to receive prophylactic white blood cell growth factors to maintain dosing but could receive them at time of neutropenia at physician discretion. Erythropoietin could be used.
All 35 patients were included in the analysis of safety and tolerability. During the 30 minute infusion, CCI-779 was well-tolerated and there were no significant toxicities that occurred. Thrombocytopenia was the cause of most dose reductions and was rapidly reversible with drug delays of typically only one week. Only three patients required platelet transfusions, and four patients required red blood cell transfusions. Thirteen patients experienced grade 3 infections without concomitant neutropenia; two patients had febrile neutropenia and three had infection (grade 3) with neutropenia. […] The conclusion was that this was idiopathic Bell's palsy and indeed it eventually resolved. A possible relationship to CCI-779 could not be established nor eliminated. The patient who experienced blurred vision was diagnosed with retinitis due to reactivation of cytomegalovirus (CMV) infection.

mantle cell lymphoma [4] = assay: Phase II trial of single-agent CCI-779, 250 mg IV weekly, in relapsed mantle cell lymphoma (NCCTG); assay type: in vivo, human
Protocol: The ability of a CCI-779 to treat or inhibit mantle cell lymphoma was evaluated in a clinical trial. Briefly, 18 patients (mean age 72 years, range 38-89 years) were treated with an intravenous dose of 250 mg CCI-779 on days 1, 8, 15, and 22 of a 4 week treatment cycle, for up to a maximum of 12 cycles. Of these patients, 15 were stage IV, 2 were stage III, and 1 was stage II. […] Only 3 patients progressed before the end of the cycle. Based on the results obtained in this clinical trial, CCI-779 is useful in the treatment or inhibition of mantle cell lymphoma.
This study was conducted through the North Central Cancer Treatment Group (NCCTG) cooperative group. Patients were eligible for this trial if they had previously received therapy and had relapsed. There was no limit on the number of prior therapies. All histologies were confirmed to be mantle cell lymphoma by central pathology review. Cyclin-D1 positivity was required by immunohistochemistry or t(11;14) detected by FISH. Patients were required to have measurable disease with a lymph node or tumor mass≧2 cm or malignant lymphocytosis with an ALC≧5,000; a life expectancy of ≧3 months, ECOG performance status of 0, 1, or 2; absolute neutrophil count (ANC)≧1,000; platelets≧75,000; hemoglobin≧8 g/dL; serum creatinine≦2× the upper limit of normal (UNL); serum bilirubin≦1.5 UNL; serum cholesterol≦350 mg/dL; and triglycerides≦400 mg/dL. Patients could not have known central nervous system involvement or HIV infection.
as §1
Patients were restaged after 1, 3, and 6 cycles and the response assessed as per the international workshop criteria. [B. D. Cheson, et al., “Report of an International Workshop to Standardize Response Criteria for Non-Hodgkin's Lymphomas”, Journal of Clinical Oncology, Vol 17, Issue 4 (April), 1999: 1244]. Patients who progressed anytime or those patients with stable disease after 6 cycles went off study.
A single stage phase II study with an interim analysis was conducted to assess the proportion of previously treated mantle cell lymphoma patients who achieved a PR or better after treatment with CCI-779. This trial was designed to test the null hypothesis that the true response rate was at most 0.05. The smallest response rate that would indicate that this regimen was worth further study in this patient population was 0.20. The design was generated based on the parameters and assumptions of a two-stage Simon MinMax™ design, but where accrual was not suspended for the interim analysis. This study design required a maximum of 32 evaluable patients, where the interim analysis was performed after 18 patients had been accrued and followed for at least 24 weeks. An additional 3 patients were accrued to this cohort (for a maximum of 35 patients overall) to account for the possibilities of ineligibility, withdrawal from study prior to drug administration, or major violations. However, only the first 32 evaluable patients were used to evaluate the decision criteria for this design. At least one response in the first 18 evaluable patients needed to be observed in the interim analysis to continue accrual. At the time of the final analyses, a total of four or more responses were required to indicate that this regimen warrants further evaluation in this patient population. […]

[5] = overall, median follow-up 11 months

Compound: CO[C@H]1C[C@@H]2CC[C@@H](C)[C@@](O)(O2)C(=O)C(=O)N2CCCC[C@H]2C(=O)O[C@H]([C@H](C)C[C@@H]2CC[C@@H](OC(=O)C(C)(CO)CO)[C@H](OC)C2)CC(=O)[C@H](C)/C=C(\C)[C@@H](O)[C@@H](OC)C(=O)[C@H](C)C[C@H](C)/C=C/C=C/C=C/1C [CCI-779, rapamycin 42-ester with 3-hydroxy-2-(hydroxymethyl)-2-methylpropionic acid]
- effect of citric acid on stability of CCI-779 [1]: enhanced the stability
- overall response rate (mantle cell lymphoma [2]; 7/11 patients): 64%
- number of PRs (mantle cell lymphoma [2]; 11 patients): 7
- adverse event, all grades: AST elevations ([3]; 35 patients): 43%
- adverse event, all grades: abnormal taste ([3]; 35 patients): 43%
- adverse event, all grades: anemia ([3]; 35 patients): 66%
- adverse event, all grades: fatigue ([3]; 35 patients): 66%
- adverse event, all grades: hypercholesterolemia ([3]; 35 patients): 40%
- adverse event, all grades: hyperglycemia ([3]; 35 patients): 91%
- adverse event, all grades: increased triglycerides ([3]; 35 patients): 77%
- adverse event, all grades: infection without concomitant neutropenia ([3]; 35 patients): 63%
- adverse event, all grades: loss of appetite ([3]; 35 patients): 40%
- adverse event, all grades: mucositis ([3]; 35 patients): 71%
- adverse event, all grades: nausea ([3]; 35 patients): 49%
- adverse event, all grades: neutropenia ([3]; 35 patients): 77%
- adverse event, all grades: rash ([3]; 35 patients): 51%
- adverse event, all grades: sensory neurophathy ([3]; 35 patients): 37%
- adverse event, all grades: thrombocytopenia ([3]; 35 patients): 100%
- adverse event, all grades: weight loss ([3]; 35 patients): 46%
- grade 5 events (deaths on treatment) ([3]; 35 patients): No grade 5 events
- patients requiring platelet transfusions ([3]; 35 patients): three
- patients requiring red blood cell transfusions ([3]; 35 patients): four
- patients with febrile neutropenia ([3]; 35 patients): two
- patients with grade 3 infections without concomitant neutropenia ([3]; 35 patients): Thirteen
- patients with infection (grade 3) with neutropenia ([3]; 35 patients): three
- tolerability during the 30 minute infusion ([3]; 35 patients): well-tolerated
- median time to discontinuation of treatment ([3]; 95% CI 3-6.2 months): 3.7 months
- patients who went off treatment due to adverse reactions ([3]; of 28 patients who discontinued treatment): 7
- dose reductions necessary ([3]; starting dose 250 mg weekly): all but 4 patients
- overall response rate (ORR) (mantle cell lymphoma [4]; 13/34 patients, 250 mg IV weekly, 90% CI 24%-54%): 38%
- median duration of response (mantle cell lymphoma [4]; 13 responders, 95% CI 4-13.2 months): 5.7 months
- overall response rate (mantle cell lymphoma [4]; 18 patients, 250 mg IV days 1, 8, 15, 22 of 4 week cycle, 95% CI 24%-68%): 44.4%
- patients progressed before the end of the cycle (mantle cell lymphoma [4]; 18 patients, 250 mg IV weekly): 3 patients
- patients with complete response (CR) (mantle cell lymphoma [4]; 18 patients, 250 mg IV weekly): One
- patients with partial response (PR) (mantle cell lymphoma [4]; 18 patients, 250 mg IV weekly): 7 patients
- number of CR (mantle cell lymphoma [4]; 34 patients, 250 mg IV weekly): 1
- number of PRs (mantle cell lymphoma [4]; 34 patients, 250 mg IV weekly): 12
- median time to progression (mantle cell lymphoma [4]; 95% CI 3.8-9.4 months): 6.2 months
- median overall survival (mantle cell lymphoma [4]; 95% CI 6.7 months to not yet reached): 12 months
- responses after 4 months evaluation (mantle cell lymphoma [4]; of 13 responders): 1
- responses after 8 months evaluation (mantle cell lymphoma [4]; of 13 responders): 1
- responses after the first cycle evaluation (mantle cell lymphoma [4]; of 13 responders): Eight
- responses documented after 3 cycles (mantle cell lymphoma [4]; of 13 responders): 3
- patients who have died (mantle cell lymphoma [4]; [5]): 22 patients
- patients with disease progression (mantle cell lymphoma [4]; [5]): 29 patients
- median time to response (mantle cell lymphoma [4]; range 1-8): 1 month
- anti-tumor activity in relapsed MCL (mantle cell lymphoma [4]; single agent): substantial anti-tumor activity
